Measured values from patent US20260335293A1, “USE OF NOVEL COMPOUND FOR TREATING INTRACTABLE DISEASES” (YJ CERAPEUTICS INC., priority 2023, published 2026).

What was measured:
Assay type in all cases: in vivo, Sprague-Dawley rats
[1] = system: inflammatory factors (IL-6, iNOS, COX-2, IL-1β, TNF-α, MIP-1α, MIP-1β, MIP-2α, Gro-α, and MCP-1); test: Inflammatory factor expression in spinal cord of SNI model, RT-PCR and Western blot; conditions: ipsilateral L4-5 spinal cord
Experimental: (§1) To be used as a peripheral nerve injury animal model, a sciatic nerve injury (SNI) model was prepared (FIG. 1C). Specifically, 200 to 220 g of male adult Sprague-Dawley rats were anesthetized by intraperitoneal injection of chloral hydrate (500 mg/kg), and then three terminal branches (tibial, common peroneal, and sural nerves) of the right sciatic nerve were approached, and the tibia nerve and the peroneal nerve were tightly ligated with 4-0 silk, and neurectomy was performed at a distal 3 mm position of the ligation site. At this time, a Sham group was a group that exposed only the sciatic nerve without damage.
It was known that when neuropathic pain occurred, the activation of microglia and astrocytes expressed inflammatory factors including cytokines and chemokines to cause excessive excitation of surrounding neurons. Therefore, in order to confirm changes in inflammatory factor expression by YJ102 administration in the SNI animal model 4 weeks after nerve injury, RNA and protein were extracted from L4-5 spinal cord tissue and RT-PCR and Western blot analysis were performed. Specifically, for RT-PCR analysis, RNA was isolated from spinal cord tissue sections using a TRIZOL Reagent (Invitrogen) according to a manual, and 20 μl of the total mixture was prepared by using 1 μg of total RNA, and cDNA was synthesized using MMLV reverse transcriptase (Invitrogen). […]

NGF / proNGF = test: NGF mRNA and proNGF in bladder tissue of SCI model, RT-PCR and Western blot; conditions: bladder tissue after SCI
Experimental: In order to confirm the effect of YJ102 (Chemical Formula 1), a compound of the present disclosure, on urinary disturbances caused by spinal cord injury, immediately after preparing the traumatic spinal cord injury (SCI) model (FIG. 1A) prepared in Example 1 above, YJ102 was dissolved in DMSO, methyl pyrrolidinone, and water (1:1.5:1) and administered intraperitoneally at 5 mg/kg, and then intraperitoneally administered at 24-hour intervals for 7 days from the next day. Thereafter, the effect of improving bladder functions was analyzed through a residual urine volume test and a urinary bladder function score (UBFS). At this time, a Vehicle group was administered with the same amount of a solution of DMSO, methyl pyrrolidinone, and water. Specifically, in order to determine the amount of urine remaining in the bladder after spinal cord injury, bladder extrusion was performed twice a day by applying pressure to the central bottom portion of the lower abdomen using the index and middle fingers to empty the bladder, and the expelled urine was collected in a catheter and its volume was recorded. […]

[2] = system: neuropathic pain (mechanical allodynia) in SCI, LSS and SNI animal models; test: Mechanical allodynia (von Frey, 50% threshold) in SCI, LSS and SNI neuropathic pain models
Experimental: To be used as a central nerve injury animal model, a traumatic spinal cord injury (SCI) model was prepared (FIG. 1A). Specifically, 230 to 250 g of male adult Sprague-Dawley rats were anesthetized by intraperitoneal injection of chloral hydrate (500 mg/kg), and then the back and neck regions were shaved, and the spinal cord under the back and neck regions was exposed without damaging the dura mater, and a laminectomy was performed at T9 to T10 levels. To stabilize the spine, the spinous processes of T8 and T11 were fixed, and the spine was damaged by free-falling a 10 g weight from a height of 25 mm using an NYU impactor onto the back surface of the exposed spinal cord and then the rats were left in a temperature and humidity-controlled chamber overnight while covering the muscles and skin. After surgery, the rats were subcutaneously injected with a supplement solution (5 ml, lactated ringer) and injected with antibiotics (gentamicin, 5 mg/kg, intramuscular injection) once daily for 5 days. The body weight, remaining food, and the weight of water were confirmed and recorded for all animals, and the bladder was emptied twice daily by passive bladder massage until reflex micturition was established. At this time, a Sham group was a group that was subjected to only laminectomy without damage.
To be used as a peripheral nerve injury animal model, a lumbar spinal stenosis (LSS) model was prepared (FIG. 1B). Specifically, 260 to 280 g of adult male Sprague-Dawley rats were anesthetized with intraperitoneal injection of chloral hydrate (500 mg/kg), the back region was shaved, and then the spinal plate was exposed at L4 to S2 levels. After removing the ligamentous section between L4 and L5, a trapezoidal silicone block (1.00 mm long×1.3 to 1.2 mm wide×1.0 mm high) was inserted into the epidural space below the L5 and L6 spinal plates without damaging the dural sac. At this time, a Sham group was a group that was subjected to only posterior […] on the animal without inserting a silicone block.
as §1
In order to confirm a neuropathic pain inhibitory effect of YJ102 (Chemical Formula 1), a compound of the present disclosure, in the three nerve injury animal models prepared in Example 1 above, rats having pain on week 3 (SNI model) or week 4 (SCI model and LSS model) after surgery were selected and administered orally (p.o.) at 10 mg/kg or 20 mg/kg of YJ102 dissolved in a solution of DMSO, methyl pyrrolidinone, and water (1:1.5:1), or intraperitoneally injected (i.p. injection) at 1, 2, or 5 mg/kg of YJ102. In a positive control group, gabapentin or pregabalin dissolved in saline was intraperitoneally injected at a concentration of 5 mg/kg, and in a Vehicle group, the same amount of a solution of DMSO, methyl pyrrolidinone, and water was administered. Thereafter, in order to measure mechanical allodynia, the rats were located at the bottom of a transparent plastic box (10 cm×10 cm) on top of a wire mesh (3 mm×3 mm) and subjected to an adaptation period for approximately 20 minutes. Von-Frey filaments were applied to the soles of both paws and used with stiff nylon von-Frey monofilament series ([…], Stoelting, WoodDale, IL, USA; equivalent in grams to 0.4, 0.6, 1.0, 2.0, 4.0, 6.0, 8.0 and 15.0) with logarithmic increases in tactile (mechanical) sensitivity. […]

[3] = p.o. 10 mg/kg or 20 mg/kg, all three models (SCI, LSS, SNI)

SMILES: CCc1ccc(N(C(=O)COC)c2nc3cc(Cl)ccc3o2)cc1 [YJ102]
- expression of inflammatory factors ([1]; RT-PCR): significantly reduced
- expression of inflammatory factors ([1]; Western blot): significantly reduced
- NGF mRNA expression (NGF / proNGF): significantly inhibited
- proNGF production (NGF / proNGF): significantly inhibited
- duration of analgesic effect relative to existing drugs (gabapentin, pregabalin) ([2]; i.p.): more than three times longer
- analgesic effect relative to gabapentin or pregabalin ([2]; i.p., at the same concentration as gabapentin or pregabalin): more than twice as high
- duration of analgesic effect [2, 3]: ≥ 4 h
- mechanical allodynia threshold increased from (time after administration) [2, 3]: 30 min
